Source: patent US20180078525A1, “COMPOSITION FOR GROWTH PROMOTION, CONTAINING COUMARIC ACID AS ACTIVE INGREDIENT” (KOREA MEDICINE RESEARCH INSTITUTE, INC, priority 2014, published 2018)

What was measured:
[1] = tested on: Sprague-Dawley rats; assay: Analysis of growth plate (heights of proliferative and hypertrophic zones); assay type: in vivo, rat; settings: after 10-day administration; for height of the proliferative zone of the growth plate: average, control group 0.77 mm; for height of the hypertrophic zone of the growth plate: control group 1.10 mm
Method: In a control group, saline was injected. […] To assess the growth effect of coumaric acid, the growth plate of each rat was analyzed. In Experimental Example <1-1>, after the 10-day administration was completed, right and left tibias (shinbones) were extracted from the experimental group and the control groups according to this invention, all the muscles, fat and ligaments attached to bone tissue were removed, and then the resulting specimen was stored in 70% alcohol, demineralized, and then dehydrated. Afterward, the resulting specimen was washed with xylene, and then put into a paraffin block. Subsequently, the specimen was cut to a thickness of 4 μm, and then the heights of the proliferative zone and the hypertrophic zone in the growth plate were measured using a BX50 microscope (Olympus).

[2] = tested on: cartilage cells; assay: Proliferation of cartilage cells in proximal tibia (BrdU staining); assay type: in vivo, rat; settings: rats, after 10-day administration, BrdU 30 mg/kg i.p., 2 hours before autopsy; control group 0.13%
Method: (§1) In a control group, saline was injected. […] The drug administered to each group is as follows:
To confirm whether the effect of coumaric acid on bone growth is caused by the proliferation of cartilage cells, cartilage cells were observed. In Experimental Example <1-1>, after the 10-day administration was completed, rats of the experimental group and the control groups according to this invention were intraperitoneally administered with a dose of 30 mg/kg of 5-bromo-2′-deoxyuridine (BrdU) on the day of the experiment. Two hours later, autopsies were carried out to extract legs, and then the legs were stored in 4% PFA for 24 hours. Following embedding and sectioning, cartilage cells which were stained using a BrdU staining kit (Invitrogen, Carlsbad, Calif., USA) were observed.

[3] = tested on: growth hormone; assay: Growth hormone levels in blood (Growth Hormone Rat ELISA Kit); assay type: in vivo; settings: rat serum, after 10-day administration; control group 3.97 ng/ml
Method: as §1
To confirm whether coumaric acid affects the secretion level of the growth hormone, a growth hormone level in the blood of each rat was measured. […] The measurement of the growth hormone levels were carried out using a Growth Hormone Rat ELISA Kit (Life Technologies, KRC5311).

[4] = tested on: IGF-1; assay: IGF-1 protein levels in blood (IGF1 ELISA Kit); assay type: in vivo; settings: rat serum, after 10-day administration; control group 0.84 mg/kg
Method: as §1
To confirm whether coumaric acid affects the secretion levels of IGF-1, […], IGF-1 protein levels were measured. In Experimental Example <1-1>, after the 10-day administration was completed, the rats of the experimental group and the control groups according to this invention were anesthetized on the day of the experiment, and then blood was extracted therefrom using a syringe and centrifuged to obtain serum. The measurement of the IGF-1 levels was carried out using an IGF1 ELISA Kit (Abcam, ab100695).

[5] = Changes in the body weight of laboratory animals; settings: male Sprague-Dawley rats, 10-day administration; coumaric acid 100 mg/kg oral, growth hormone 20 μg/kg s.c., once daily
Method: Three-week-old male Sprague-Dawley rats were purchased and acclimated for three days. A breeding environment was altered to a 24-hour pattern, a light/dark cycle was maintained at 12-hour intervals, and antibiotic-free normal solid feed was used. In a control group, saline was injected. In a positive control group, Eutropin Injection (LG Bioscience Korea) was subcutaneously injected at a dose of 20 μg/kg once a day. The coumaric acid of this invention was administered to the oral cavity of all rats of a coumaric acid group, once daily.
After feeding and administering the coumaric acid to the rats for 10 days, autopsies were carried out to confirm the following content.
The measurement was carried out twice a week. The measured values were statistically analyzed to calculate mean±standard deviation.

[6] = tested on: Sprague-Dawley rats; assay: Total tibial length by X-ray radiography; assay type: in vivo, rat; settings: after 10-day administration, coumaric acid 100 mg/kg oral, growth hormone 20 μg/kg s.c.
Method: as §1
To assess the effect of coumaric acid on growth promotion, total tibial length of rats were measured. In Experimental Example <1-1>, after the 10-day administration was completed, right and left tibias (shinbones) were extracted from the control groups and the coumaric acid-fed experimental group according to this invention, all the muscles, fat and ligaments attached to bone tissue were removed, and then the resulting specimen was stored in 70% alcohol, followed by radiographic analysis using an X-ray imaging instrument (OM-FORTE-10121, DK Medical Systems). For the analysis, 55 kV, […] X-ray sources were used. The total tibial length was measured by X-ray radiography.

Compound: O=C(O)/C=C/c1ccc(O)cc1 [coumaric acid]
- height of the proliferative zone of the growth plate [1]: 0.98 mm
- height of the hypertrophic zone of the growth plate [1]: 1.27 mm
- ratio of BrdU-labeled cells with respect to total cells [2]: 0.18%
- growth hormone level in blood [3]: 7.62 ng/mL
- IGF-1 protein level [4]: 1.23 mg/kg
- body weight vs control group [5]: almost no difference

Compound: growth hormone: positive control: Eutropin Injection (LG Bioscience Korea), growth hormone, subcutaneously injected at 20 μg/kg once a day
- total tibial length vs control group [6]: greater than the control group
- height of the proliferative zone of the growth plate [1]: 1.13 mm
- height of the hypertrophic zone of the growth plate [1]: 1.44 mm
- ratio of BrdU-labeled cells with respect to total cells [2]: 0.18%
- growth hormone level in blood [3]: 11.89 ng/mL
- IGF-1 protein level [4]: 1.31 mg/kg
